We go through 2 compounds from patent US20140155445A1, “Compounds and Methods for Treating Cancer and Diseases of the Central Nervous System” (Osta Biotechnologies Inc., priority 2007, published 2014).

By AUC(0-inf) is commonly meant total exposure, with the tail of the curve extrapolated. The term Tmax denotes the time from dosing to the highest level. One may read the Cmax as the peak of the concentration-time curve.

Series [1] relates to hHO-1 transfected primary rat astroglial cultures. The experiment in a line: Protein carbonyl ELISA in hHO-1-transfected primary rat astroglia (whole-cell and mitochondrial compartments). In kind it is cell-based. As for the experimental part:
Cells were grown in Ham's F12 and high glucose DMEM (50:50 v/v) supplemented with 10 mM HEPES, 5% heat-inactivated horse serum, 5% heat-inactivated fetal bovine serum, and penicillin-streptomycin (50 U/mL and 50 μg/mL, respectively).
Upon reaching >90% confluence, 1×10^6 cells were transiently transfected with 4.0 μg of plasmid DNA-Lipofectamine 2000 complex using Lipofectamine 2000 method according to manufacturer instructions (Invitrogen). […] 12 μg of plasmid DNA and 16 μl of Lipofectamine 2000 reagent were diluted in 1.5 mL opti-MEM I reduced serum medium and incubated for 5 minutes at room temperature with gentle mixing. The two solutions were combined, incubated at room temperature for 20 minutes to promote formation of DNA-lipid complexes and administered to the cells. 2 mL opti-MEM I reduced serum medium was added to the flasks to ensure coverage of the monolayer by the transfection mixture. Following incubation for 6 hours at 37° C., the transfection mixture was replaced with 10 mL of complete media without antibiotics.
The cells were sonicated (Sonics & Materials, Danbury, Conn.) at a power level of 50 for 3×20 s in a cooled water bath. […] Whole-cell and mitochondrial preparations were assayed for protein carbonyls as described below.
Protein carbonyls were reacted with 2,4-dinitrophenylhydrazine (DNP) and the hydrazone adducts were detected with anti-DNP antisera. Quantification was achieved by comparison with oxidized BSA standards. Oxidized (carbonylated) BSA was prepared by reacting natural BSA (at 50 mg/mL in PBS) with hypochlorous acid (5 mM) for 1 h at 37° C., followed by overnight dialysis against PBS at 4° C. […] The pellet was resuspended in 2 mL of same buffer, sonicated on ice 2×15 s at 20 W and centrifuged for 20 min at 4° C. at 1,303×g. Protein concentration of supernatant was measured with the RC DC protein assay based on the Lowry protocol (Bio-Rad Laboratories, Hercules, Calif.). All samples were adjusted to 4.0 mg protein/mL. […] Five microliters aliquots of each reaction mixture were mixed with 1 mL PBS and 200 μL replicates were added per well to 96-well immunoplates and incubated overnight at 4° C. After washing with PBS, nonspecific binding sites were blocked with 0.1% Tween 20 in PBS. […] A 6-point standard curve of reduced and oxidized BSA was generated for each plate analyzed. Specific absorbance for each sample was calculated by subtracting basal absorbance of the DNP reagent from the total absorbance.
A general note: ELISA stands for enzyme-linked immunosorbent assay.

The subject of series [2] is SKMEL-V human melanoma cells. Kind of series: Human melanoma model SKMEL-V+ in SCID mice (pilot study). In kind it is in vivo. An excerpt: Human melanoma cells (“SKMEL-V cells”) were derived from SKMEL-24 cells (ATCC) by over expression of mouse VEGF.
Only those cells with >95% viability were used for in-vivo studies.
Once tumors reached a size of approximately 0.7 cm^3, they were removed under sterile condition, sliced into small pieces under a stereo-microscope. Each tissue piece was then reinoculated subcutaneously. Only pieces of approximately the same size and with no signs of necrosis were used.
At the end of the experiment, mice were sacrificed by cervical dislocation and full autopsies were conducted. A picture was taken of tumors from randomly selected mice. The tumors were then fixed in formalin for pathology examination.

Series [3] is described as follows: Pharmacokinetic evaluation of QC-199 in mouse plasma, IV infusion. Type of series: in vivo. As for the experimental part: Regular male CD1 mice, 6 weeks old, were obtained from Charles River Laboratories, St. Zotique, PQ, Canada. The mice weighed 22-28 g. The experiments were approved by the Animal Care Committee, McGill University, Montreal, Quebec. The animals were housed in individual cages and were fed standard rodent chow and water ad libitum. Mice weights were measured with a digital balance accurate to 0.05 g and then received QC-199 at the indicated doses either orally, or via i.p. injections or following i.v. slow infusion. In the case of i.v. injection or i.v. infusion, mice were anesthetized using isoflurane-based system (DISPOMED, MODUFLEX COMPACT NRB, 3975-0800-000). For the infusion, a mini pump (NE-1800, New Era Pump Systems, Inc.) was used to infuse the compound via the tail vein during a 2 h period. In one study, blood and brain tissue samples were collected at various time points after administration of QC-199 using EDTA tubing (Das Original S-Monovette EDTA KE/1.2 ml lot.9094102 and Needle for S-Monovette 22G lot. 8073401) via cardiac puncture and immediately stored at 4° C. Serum was collected after the samples were centrifuged 2200×, 4° C. for 20 minutes and stored at −80° C. until analysis. For the brain tissue collection, skin of mice was removed and brain was carefully dissected out from the skull, transferred into a Petri dish, briefly washed with ice-cold phosphate-buffered saline (PBS), and immediately stored at −80° C. until further analysis.
The assay of QC-199 in mouse plasma and brain samples was carried out using qualified LC/MS/MS assay methods.

Where [4] appears, read: male, CD-1, mouse, in vivo, IV infusion.

“Also recorded” adds a separate entry of the source. Like-named read-outs stand apart in the source and are kept apart here.

Consider `Brc1ccc(CCC2(Cn3ccnc3)OCCO2)cc1.Cl` [QC-56, 1-((2-(2-(4-Bromophenyl)ethyl)-1,3-dioxolan-2-yl)methyl)-1H-imidazole hydrochloride], for which the “oxidative protein damage (protein carbonyls) accruing from hHO-1 transfection” value in series [1] (6.5 μM) is reported as “significantly attenuated”. Besides, the “dose dependence of attenuation of oxidative protein damage” value in series [1] (transiently transfected rat astroglia, hydrochloride) is “significant dose dependant attenuations; also recorded: in a dose dependent manner significantly decreased; also recorded: significant dose-dependant attenuations”. Further, the anti-tumor activity entry in series [2] (30 and 60 mg/kg i.p.) is recorded as “clear anti-tumor activity”. In addition, the “tumor volumes vs vehicle alone” value in series [2] (QC-56 30 mg/kg (P<0.03) and 60 mg/kg (P<0.02)) is on record as “statistically significantly smaller”. In addition, in series [2] (QC-56 30 and 60 mg/kg vs dacarbazine 50 mg/kg), the “potency compared with dacarbazine” value is listed as “significantly more potent than dacarbazine”. Besides, the tolerability entry by setting is: (50 mg/kg, multiple administrations) “well tolerated”; (multiple doses up to 100 mg/kg (intraperitoneal, intravenous), hydrochloride) “well tolerated with no apparent signs of toxicity; also recorded: well tolerated”; (repeated doses of 30 and 60 mg/kg i.p., SCID mice, hydrochloride) “well tolerated at repeated doses of 30 and 60 mg/kg with minor changes in body weights with no apparent toxicity; also recorded: well tolerated”. Moreover, the “toxicity in combination studies” value (QC-56 60 mg/kg i.p. 4 cycles, chemotherapy drugs i.p.) is recorded as “No apparent toxicity”. In addition, the toxic single dose (single intraperitoneal dose, SCID mice) is on record as over 100 mg/kg.
For the compound `Brc1ccc(CCCCn2ccnc2)cc1.Cl` [QC-199, 1-[4-(4-bromophenyl)butyl]-1H-imidazole hydrochloride], in series [3] (IV infusion), the “AUC_%Extrap_obs” value was 37%. Besides, in series [3] (setting [4]), the AUC(0-inf) amounted to 224 µg·h/mL and the Tmax turned out to be 3 h. Besides, the half-life in series [3] (male, CD-1, mouse, in vivo, IV infusion, from Lambda z, read-out: T½ (converted)) is 1080 min. Also, the AUC in series [3] (male, CD-1, mouse, in vivo, IV infusion, read-out: AUCall (0-24 h)) is 141 µg·h/mL. In series [3] (mouse, 90 min IV infusion, male CD-1 mice), this compound gave a Cmax of 8000 ng/mL.
